In this assay the target is T1, human recombinant HDAC6 (Homo sapiens, UniProt Q9UBN7).
T1 construct: purchased Calbiochem 382180
T1 sequence (Q9UBN7 1-1215): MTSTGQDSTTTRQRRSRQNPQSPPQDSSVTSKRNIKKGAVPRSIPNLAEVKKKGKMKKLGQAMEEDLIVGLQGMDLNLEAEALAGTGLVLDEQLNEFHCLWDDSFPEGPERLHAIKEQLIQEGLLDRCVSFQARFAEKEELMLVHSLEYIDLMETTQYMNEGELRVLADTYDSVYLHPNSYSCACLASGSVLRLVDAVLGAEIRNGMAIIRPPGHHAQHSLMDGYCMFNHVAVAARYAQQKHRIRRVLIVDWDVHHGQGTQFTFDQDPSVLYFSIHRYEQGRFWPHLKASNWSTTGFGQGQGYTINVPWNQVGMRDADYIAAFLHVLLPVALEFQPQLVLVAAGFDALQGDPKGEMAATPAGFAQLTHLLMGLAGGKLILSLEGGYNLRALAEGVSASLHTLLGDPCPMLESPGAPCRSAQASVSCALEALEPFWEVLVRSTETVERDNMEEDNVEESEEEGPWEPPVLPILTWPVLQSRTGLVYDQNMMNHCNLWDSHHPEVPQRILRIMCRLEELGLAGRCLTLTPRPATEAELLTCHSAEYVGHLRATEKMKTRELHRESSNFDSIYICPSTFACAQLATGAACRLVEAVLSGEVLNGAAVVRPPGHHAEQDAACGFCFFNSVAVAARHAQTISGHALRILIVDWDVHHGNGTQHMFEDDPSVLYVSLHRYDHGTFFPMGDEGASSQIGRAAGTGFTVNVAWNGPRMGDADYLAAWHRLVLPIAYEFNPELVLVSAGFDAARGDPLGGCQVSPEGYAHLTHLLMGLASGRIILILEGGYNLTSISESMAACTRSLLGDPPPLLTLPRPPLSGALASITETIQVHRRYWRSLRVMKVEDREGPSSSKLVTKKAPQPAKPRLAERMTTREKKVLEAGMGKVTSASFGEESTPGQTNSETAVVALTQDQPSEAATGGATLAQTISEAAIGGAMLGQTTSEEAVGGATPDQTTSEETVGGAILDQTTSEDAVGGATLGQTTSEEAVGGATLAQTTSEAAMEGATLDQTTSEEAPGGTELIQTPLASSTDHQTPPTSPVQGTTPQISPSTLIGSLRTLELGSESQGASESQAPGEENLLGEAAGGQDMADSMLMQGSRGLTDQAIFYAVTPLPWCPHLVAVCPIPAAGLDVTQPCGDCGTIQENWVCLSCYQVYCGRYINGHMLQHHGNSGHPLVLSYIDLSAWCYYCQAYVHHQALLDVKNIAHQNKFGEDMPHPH
The experiment in a line: HDAC6 enzyme activity inhibition assay (HDAC Fluorimetric Drug Discovery Kit). Format: biochemical. The conditions noted are these: for HDAC6 selectivity (fold): HDAC6 over HDAC1; for IC50: human recombinant HDAC6, same protocol as HDAC1, read-out: HDAC6. In a few lines: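 Fluorimetric deacetylase assay: 5-fold serial compound dilutions, 0.3 μg recombinant human enzyme (HDAC1 or HDAC6, same protocol), 10 μM Fluor de Lys-SIRT1 substrate, 60 min at 30 °C. Signal developed 30 min, measured at 360/460 nm; IC50 values derived.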

Consider `O=C(N1CCS(=O)(=O)CC1)N(Cc1ccc(-c2nnc(C(F)F)o2)cc1F)c1ccc(CN2CCCCC2)cc1` [Compound 21919, N-(4-(5-(difluoromethyl)-1,3,4-oxadiazol-2-yl)-2-fluorobenzyl)-N-(4-(piperidin-1-ylmethyl)phenyl)thiomorpholine-4-carboxamide 1,1-dioxide], for which the “HDAC6 selectivity (fold)” value is given as 28 fold and the IC50 worked out at 0.357 µM.
On the same counts, the results for `O=C(N1CCS(=O)(=O)CC1)N(Cc1ccc(-c2nnc(C(F)F)o2)cc1F)c1ccc(OC2CCN(Cc3ccccc3)CC2)cc1` [Compound 21924, N-(4-((1-benzylpiperidin-4-yl)oxy)phenyl)-N-(4-(5-(difluoromethyl)-1,3,4-oxadiazol-2-yl)-2-fluorobenzyl)thiomorpholine-4-carboxamide 1,1-dioxide] are 47 fold and 0.213 µM.
Turning to `C[C@@H]1CN(Cc2ccccc2)C[C@H](C)N1Cc1ccc(N(Cc2ccc(-c3nnc(C(F)F)o3)cc2F)C(=O)N2CCS(=O)(=O)CC2)cc1` [Compound 21925], the “HDAC6 selectivity (fold)” value is recorded as 12 fold and the IC50 was 0.829 µM.
Turning to `C[C@@H]1CN(Cc2ccc(N(Cc3ccc(-c4nnc(C(F)F)o4)cc3F)C(=O)N3CCS(=O)(=O)CC3)cc2)C[C@H](C)N1Cc1ccccc1` [Compound 21926], the “HDAC6 selectivity (fold)” value was 28 fold and the IC50 worked out at 0.356 µM.
As for `O=C(N1CCOCC1)N(Cc1ccc(-c2nnc(C(F)F)o2)cc1F)c1ccc(F)c(Cl)c1` [Compound 21929, N-(3-chloro-4-fluorophenyl)-N-(4-(5-(difluoromethyl)-1,3,4-oxadiazol-2-yl)-2-fluorobenzyl)morpholine-4-carboxamide], the “HDAC6 selectivity (fold)” value is given as 176 fold and the IC50 worked out at 0.057 µM.
The corresponding values for `O=C(N1CCOCC1)N(Cc1ccc(-c2nnc(C(F)(F)F)o2)cc1F)C12CC3CC(CC(C3)C1)C2` [Compound 21931, N-((3s,5s,7s)-adamantan-1-yl)-N-(2-fluoro-4-(5-(trifluoromethyl)-1,3,4-oxadiazol-2-yl)benzyl)morpholine-4-carboxamide] are 6 fold and 1.74 µM.
The corresponding values for `O=C(N1CCOCC1)N(Cc1ccc(-c2nnc(C(F)F)o2)cc1F)CC12CC3CC(CC(C3)C1)C2` [Compound 21932, N-(((3r,5r,7r)-adamantan-1-yl)methyl)-N-(4-(5-(difluoromethyl)-1,3,4-oxadiazol-2-yl)-2-fluorobenzyl)morpholine-4-carboxamide] are 15 fold and 0.684 µM.
The corresponding values for `O=C(N1CCOCC1)N(Cc1ccc(-c2nnc(C(F)(F)F)o2)cc1F)CC12CC3CC(CC(C3)C1)C2` [Compound 21933, N-(((3r,5r,7r)-adamantan-1-yl)methyl)-N-(2-fluoro-4-(5-(trifluoromethyl)-1,3,4-oxadiazol-2-yl)benzyl)morpholine-4-carboxamide] are 4 fold and 2.41 µM.
Turning to `CCN1C[C@@H](C)N(Cc2ccc(N(Cc3ccc(-c4nnc(C(F)F)o4)cc3F)C(=O)N3CCS(=O)(=O)CC3)cc2)[C@@H](C)C1` [Compound 21934, N-(4-(5-(difluoromethyl)-1,3,4-oxadiazol-2-yl)-2-fluorobenzyl)-N-(4-(((2R,6S)-4-ethyl-2,6-dimethylpiperazin-1-yl)methyl)phenyl)thiomorpholine-4-carboxamide 1,1-dioxide], the “HDAC6 selectivity (fold)” value was found to be 15 fold and the IC50 is 0.667 µM.
On the same counts, the results for `CCN1[C@H](C)CN(Cc2ccc(N(Cc3ccc(-c4nnc(C(F)F)o4)cc3F)C(=O)N3CCS(=O)(=O)CC3)cc2)C[C@@H]1C` [Compound 21935, N-(4-(5-(difluoromethyl)-1,3,4-oxadiazol-2-yl)-2-fluorobenzyl)-N-(4-(((3S,5R)-4-ethyl-3,5-dimethylpiperazin-1-yl)methyl)phenyl)thiomorpholine-4-carboxamide 1,1-dioxide] are 38 fold and 0.265 µM.
For the compound `O=C(N1CCN(C2COC2)CC1)N(Cc1ccc(-c2nnc(C(F)F)o2)cc1)c1cccc(F)c1` [Compound 21936, N-(4-(5-(Difluoromethyl)-1,3,4-oxadiazol-2-yl)benzyl)-N-(3-fluorophenyl)-4-(oxetan-3-yl)piperazine-1-carboxamide], the “HDAC6 selectivity (fold)” value was found to be 91 fold and the IC50 was determined as 0.11 µM.
The corresponding values for `O=C(N1CCN(C2COC2)CC1)N(Cc1ccc(-c2nnc(C(F)F)o2)cc1F)c1cccc(F)c1` [Compound 21937, N-(4-(5-(Difluoromethyl)-1,3,4-oxadiazol-2-yl)-2-fluorobenzyl)-N-(3-fluorophenyl)-4-(oxetan-3-yl)piperazine-1-carboxamide] are 153 fold and 0.065 µM.
The corresponding values for `O=C(N1CCN(C2COC2)CC1)N(Cc1ccc(-c2nnc(C(F)F)o2)cn1)c1cccc(F)c1` [Compound 21938, N-((5-(5-(Difluoromethyl)-1,3,4-oxadiazol-2-yl)pyridin-2-yl)methyl)-N-(3-fluorophenyl)-4-(oxetan-3-yl)piperazine-1-carboxamide] are 122 fold and 0.082 µM.
The corresponding values for `O=C(N1CCN(C2COC2)CC1)N(Cc1ccc(-c2nnc(C(F)F)o2)cc1)c1ccc(F)cc1` [Compound 21939, N-(4-(5-(Difluoromethyl)-1,3,4-oxadiazol-2-yl)benzyl)-N-(4-fluorophenyl)-4-(oxetan-3-yl)piperazine-1-carboxamide] are 62 fold and 0.161 µM.
As for `O=C(N1CCN(C2COC2)CC1)N(Cc1ccc(-c2nnc(C(F)F)o2)cc1F)c1ccc(F)cc1` [Compound 21940, N-(4-(5-(Difluoromethyl)-1,3,4-oxadiazol-2-yl)-2-fluorobenzyl)-N-(4-fluorophenyl)-4-(oxetan-3-yl)piperazine-1-carboxamide], the “HDAC6 selectivity (fold)” value was 118 fold and the IC50 was 0.085 µM.
On the same counts, the results for `O=C(N1CCN(C2COC2)CC1)N(Cc1ccc(-c2nnc(C(F)F)o2)cc1)c1cccc(Cl)c1` [Compound 21942, N-(3-Chlorophenyl)-N-(4-(5-(difluoromethyl)-1,3,4-oxadiazol-2-yl)benzyl)-4-(oxetan-3-yl)piperazine-1-carboxamide] are 160 fold and 0.062 µM.
The corresponding values for `O=C(N1CCN(C2COC2)CC1)N(Cc1ccc(-c2nnc(C(F)F)o2)cn1)c1cccc(Cl)c1` [Compound 21944, N-(3-Chlorophenyl)-N-((5-(5-(difluoromethyl)-1,3,4-oxadiazol-2-yl)pyridin-2-yl)methyl)-4-(oxetan-3-yl)piperazine-1-carboxamide] are 201 fold and 0.05 µM.
In the case of `O=C(N1CCN(C2COC2)CC1)N(Cc1ccc(-c2nnc(C(F)F)o2)cc1)c1ccc(Cl)cc1` [Compound 21945, N-(4-Chlorophenyl)-N-(4-(5-(difluoromethyl)-1,3,4-oxadiazol-2-yl)benzyl)-4-(oxetan-3-yl)piperazine-1-carboxamide], the “HDAC6 selectivity (fold)” value came to 52 fold and the IC50 was found to be 0.193 µM.
In the case of `O=C(N1CCN(C2COC2)CC1)N(Cc1ccc(-c2nnc(C(F)F)o2)cc1F)c1ccc(Cl)cc1` [Compound 21946, N-(4-Chlorophenyl)-N-(4-(5-(difluoromethyl)-1,3,4-oxadiazol-2-yl)-2-fluorobenzyl)-4-(oxetan-3-yl)piperazine-1-carboxamide], the “HDAC6 selectivity (fold)” value is given as 81 fold and the IC50 is 0.123 µM.
With `O=C(N1CCN(C2COC2)CC1)N(Cc1ccc(-c2nnc(C(F)F)o2)cn1)c1ccc(Cl)cc1` [Compound 21947, N-(4-Chlorophenyl)-N-((5-(5-(difluoromethyl)-1,3,4-oxadiazol-2-yl)pyridin-2-yl)methyl)-4-(oxetan-3-yl)piperazine-1-carboxamide], the “HDAC6 selectivity (fold)” value worked out at 112 fold and the IC50 amounted to 0.09 µM.

Values taken from US10717716B2, “1,3,4-oxadiazole derivative compounds as histone deacetylase 6 inhibitor, and the pharmaceutical composition comprising the same” (Chong Kun Dang Pharmaceutical Corp., priority 2015, dated 2020).
